Data from patent publication US9486447B2, “Compositions and methods for controlling neuronal excitation” (The General Hospital Corporation, priority 2011, dated 2016).
Entries after “also recorded” stand apart in the source; their conditions may differ.

How the values were obtained:
[1] = tested on: dorsal root ganglia (DRG) sensory neurons; assay: Calcium imaging of DRG sensory neurons; type: cell-based, mouse; settings: 100 μM mustard oil
Description: To determine if optovin acts on sensory neurons, the activity of treated and untreated dorsal root ganglia (DRG) sensory neurons isolated from wild type mice were compared. […] TRPA1 channels play important roles in detecting chemical, thermal, and mechanical stimuli in a variety of organisms^34,35.
C57Bl/6 male mice (3-4 weeks old) were decapitated and DRG were dissected into 4° C. Hank's Balanced Salt Solution (HBSS; Gibco), then neurons were dissociated using collagenase (1 mg/mL; Worthington) and dispase (5 mg/mL; Gibco) dissolved in HBSS. Neurons were plated in Neurobasal-A medium (Invitrogen), supplemented with B-27 Supplement (Gibco), L-glutamine (Gibco), and penicillin-streptomycin (Gibco). The neurons were plated onto coverslips coated with 0.1 mg/mL poly-D-lysine (Sigma) and 5 μg/mL laminin (Sigma). After 24 h, neurons were washed with assay buffer (HBSS, supplemented with 9 mM HEPES, 11 mM D-glucose, 0.1% fatty-acid free BSA, pH 7.3) and incubated for 1 h with 2 μM Fura2-AM (Invitrogen) with 0.2% pluronic (Invitrogen) in assay buffer in the dark at room temperature. The neurons were then washed with assay buffer and allowed to equilibrate at room temperature for 30 min prior to imaging. After a 120 s baseline perfusion of assay buffer containing 3.3% DMSO, 100 μM optovin dissolved in the DMSO-assay buffer solution, or the DMSO-assay buffer solution alone as a control, was perfused onto the neurons for a period of 1 min. Fura-2 is activated with UV-light, and the process of imaging Fura-2 was enough to activate the optovin. […] Following this one-minute period, cells were perfused with DMSO-assay buffer to remove the agonist, which was followed by addition of 100 μM mustard oil (in DMSO-assay buffer) to determine the total number of TrpA1-expressing neurons present. Images were acquired on a Nikon Eclipse Ti microscope (Nikon, Melville, N.Y.).

zebrafish embryos = assay: Zebrafish behavioral assay (light-dependent motor excitation, excitation score); type: in vivo; settings: for behavioral excitation (activity of optovin analogs) / light-dependent motor excitation in vivo: 10 μM; for behavioral excitation (activity of optovin analogs): n=5, FIG. 2A; for light-dependent motor excitation in vivo: n=3, FIG. 4H
Description: To identify small molecules for the optical control of endogenous channels, a screen was conducted for compounds that could drive light-dependent motor behaviors in wild-type zebrafish. Zebrafish embryos are particularly well suited for phenotype based chemical screens^28,29. They are blind for the first 3 days of development and other than a one-time motor response to the first light exposure in dark-adapted animals (the photomotor response, PMR), zebrafish embryos are unresponsive to light^31,30 (FIG. 1A). A library of 10,000 structurally diverse synthetic small molecules was screened for compounds that render zebrafish embryos responsive to light. Behavioral responses were measured for each well in comparison to a set of 2,500 DMSO treated controls. This screen identified a single compound, optovin, that increased motor activity greater than 40 standard deviations above the control mean (FIGS. 1A-1C).
A large number of fertilized eggs (up to 5,000 embryos per day) were collected from group mating of Ekkwill or TuAB zebrafish. Embryos were raised in HEPES (10 mM) buffered E3 media in a dark incubator at 28° C. until […]. Groups of ˜8 embryos (28 hpf) were distributed into the wells of flat bottom black-walled 96 well plates filled with E3 media (360 μl). Embryos were then incubated in a dark incubator 25° C. for chemical treatment and subsequent experiments.
The Tim Tec ACTIPROBEβ library contains 10,000 compounds dissolved in DMSO at a stock concentration of 1 mg/ml (˜3 mM). The Tim Tec library was screened at a 1:300 dilution in E3 buffer for a final concentration of ˜10 μM. Negative controls were treated with an equal volume of DMSO. Stock solutions were added directly to zebrafish in the wells of a 96 well plate, mixed, and allowed to incubate for 2-10 hours in the dark prior to behavioral evaluation in the PMR assay. The Tim Tec library (10,000 compounds) was purchased from the Tim Tec corporation (Newark, Del.). The Neurotransmitter Library (700 compounds; cat #2810) was purchased from Biomol International. Reordered hit compounds were dissolved in DMSO and added to wells as described above.
Animals were exposed to a two pulse stimulus train with a 10 s inter-stimulus interval. Exposure to the first pulse was used to trigger the photomotor response, which has a refractory phase of approximately 10 minutes. […] In a typical assay, 1000 frames of digital video were recorded at 33 fps using a Hamamatsu ORCA-ER camera mounted on a Nikon TE200 microscope with a 1× objective. Instrument control and data measurement were performed using custom scripts for Metamorph Software (Molecular Devices). Each video was saved for review. Light stimuli were generated with a 300-watt xenon bulb housed in a Sutter Lambda LS illuminator and delivered to the well 10 s and 20 s after the start of each video. A cold mirror (reflectance between 300 nm and 700 nm) on the Sutter illuminator was used to block wavelengths outside of this range. Light intensity was measured using a PM100D power meter attached to a S120VC photodiode power sensor (Thorlabs). Where indicated, filters were used to restrict the excitation light to the indicated wavelengths.
To analyze digital video recordings, custom software scripts were used to automatically draw six evenly spaced line segments across each well such that each embryo is likely to be crossed by one of the lines. The software then tracks the average intensity of the pixels for each segment over time. As the embryos move, the light intensity at some of the pixels changes. The motion index was calculated by taking the total absolute difference in pixel intensity between frames. This motion index correlates with the overall amount of motion in the well, both in terms of contraction frequency and number of animals in motion. Behavioral features are quantified by ‘excitation scores’ that are calculated by taking the 75th percentile of the motion index for 3-5 s following the light stimulus. […]

| SMILES | behavioral excitation (activity of optovin analogs) (zebrafish embryos) | other results |
| --- | --- | --- |
| C=CCN=C=S [mustard oil, reference compound] | – | response of optovin responsive DRG neurons to mustard oil [1]: responded to mustard oil |
| Cc1cc(/C=C2/NC(=O)NC2=O)c(C)n1-c1cccnc1 [6c4] | retains optovin activity | – |
| C1CN2CCN1CC2 [DABCO, 1,4-diazabicyclo[2.2.2]octane, reference compound] | – | effect on other light elicited behaviors (PMR) (zebrafish embryos; co-treatment with optovin): not affect other light elicited behaviors; suppression of the optovin response in vivo (zebrafish embryos; co-treatment with optovin): completely suppress the optovin response |
| Cc1cc(C=C2SC(=O)NC2=O)c(C)n1-c1cccnc1 [6c2] | abrogate the optovin response; also recorded: inactive | – |
| CN(C)c1ccc(C=C2SC(=S)NC2=O)cc1 [6c7] | Neither analog retains activity; also recorded: inactive | – |
| CCN1C(=O)C(=Cc2cc(C)n(-c3cccnc3)c2C)SC1=S [6c3] | abrogate the optovin response; also recorded: inactive | – |
| O=C1CSC(=S)N1 [6c5] | Neither analog retains activity; also recorded: inactive | – |
| Cc1cc(/C=C2/SC(=S)NC2=O)c(C)n1-c1ccccc1 [6b8] | bioactive; also recorded: active | – |
| COc1cc(C(C)=C2SC(=S)NC2=O)ccc1O [7d1] | – | light-dependent motor excitation in vivo (zebrafish embryos): does not cause light dependent motor activity |
| Cc1cc(/C=C2/SC(=S)NC2=O)c(C)n1C [6c1] | bioactive; also recorded: active | lowest effective dose (zebrafish embryos; zebrafish, in vivo): 300 nM; lowest effective dose, fold lower than optovin (zebrafish embryos; zebrafish, in vivo): 10 × |
| COc1ccc(/C=C2/SC(=S)NC2=O)cc1O [7c7] | – | light-dependent motor excitation in vivo (zebrafish embryos): cause light-dependent motor excitation |
